Legend:
Test in all cases: cAMP inhibition assay (ALPHAScreen), transfected CHO-K1
Type in all cases: cell-based
mouse HCA2 = biological target: T1, mouse HCA2 (Mus musculus, UniProt Q9EP66)
T1 construct: gene Hcar2; full-length, N-terminal HA and C-terminal FLAG tag, CHO-K1
Source text: cAMP inhibition assay (ALPHAScreen), transfected CHO-K1 on mouse HCA2

orangutan HCA2 = biological target: T2, orangutan HCA2 (Pongo abelii, UniProt A0A8I5YUU0)
T2 construct: gene HCAR2; full-length, HA/FLAG tags, CHO-K1
T2 sequence (A0A8I5YUU0 1-363): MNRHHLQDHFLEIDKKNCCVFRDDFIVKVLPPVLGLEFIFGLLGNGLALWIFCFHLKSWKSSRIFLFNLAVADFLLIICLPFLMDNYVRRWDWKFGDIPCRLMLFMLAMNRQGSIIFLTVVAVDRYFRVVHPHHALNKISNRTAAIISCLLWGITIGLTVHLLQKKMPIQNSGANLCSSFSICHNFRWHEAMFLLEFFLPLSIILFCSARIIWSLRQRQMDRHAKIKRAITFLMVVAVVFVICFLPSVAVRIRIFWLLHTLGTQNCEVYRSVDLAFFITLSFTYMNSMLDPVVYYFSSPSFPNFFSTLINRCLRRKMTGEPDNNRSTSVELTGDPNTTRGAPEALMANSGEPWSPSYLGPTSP
Source text: cAMP inhibition assay (ALPHAScreen), transfected CHO-K1 on orangutan HCA2

human HCA2 = biological target: T3, human HCA2 (Homo sapiens, UniProt Q8TDS4); settings: read-out: HCA3 / Basal cAMP (% of mock-transfected)
T3 construct: gene HCAR2; full-length, N-terminal HA and C-terminal FLAG tag, pcDps, transient in CHO-K1
T3 sequence (Q8TDS4 whole entry): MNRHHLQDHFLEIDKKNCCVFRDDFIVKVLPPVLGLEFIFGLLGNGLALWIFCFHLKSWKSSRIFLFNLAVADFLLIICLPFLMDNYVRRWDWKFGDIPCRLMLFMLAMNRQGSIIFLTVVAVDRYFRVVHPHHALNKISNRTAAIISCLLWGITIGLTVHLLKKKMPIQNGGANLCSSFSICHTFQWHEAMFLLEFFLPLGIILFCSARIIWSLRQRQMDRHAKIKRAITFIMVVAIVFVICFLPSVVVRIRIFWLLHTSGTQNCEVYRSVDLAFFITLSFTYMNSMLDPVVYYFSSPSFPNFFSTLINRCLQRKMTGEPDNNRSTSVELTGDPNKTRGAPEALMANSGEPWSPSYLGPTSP
Source text: cAMP inhibition assay (ALPHAScreen), transfected CHO-K1 on human HCA2

human HCA3 = biological target: T4, human HCA3 (Homo sapiens, UniProt P49019); settings: read-out: EC50 (μM) (95% CI)
T4 construct: gene HCAR3; full-length, N-terminal HA and C-terminal FLAG tag, pcDps, transient in CHO-K1
T4 sequence (P49019 whole entry): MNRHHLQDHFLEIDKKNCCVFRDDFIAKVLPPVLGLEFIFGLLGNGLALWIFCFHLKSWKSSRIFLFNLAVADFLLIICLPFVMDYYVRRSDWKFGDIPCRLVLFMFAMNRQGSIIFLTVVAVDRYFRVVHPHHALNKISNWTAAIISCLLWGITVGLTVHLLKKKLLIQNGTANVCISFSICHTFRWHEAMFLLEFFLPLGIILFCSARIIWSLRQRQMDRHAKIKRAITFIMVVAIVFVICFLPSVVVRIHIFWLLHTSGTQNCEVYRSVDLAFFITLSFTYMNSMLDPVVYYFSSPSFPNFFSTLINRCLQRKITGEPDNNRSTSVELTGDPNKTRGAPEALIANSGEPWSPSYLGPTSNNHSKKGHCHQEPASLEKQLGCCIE
Source text: cAMP inhibition assay (ALPHAScreen), transfected CHO-K1 on human HCA3

chimpanzee HCA3 = biological target: T5, chimpanzee HCA3 (Pan troglodytes, UniProt A0A2J8MD62); settings: agonist; 2 μM forskolin; HBSS
T5 construct: gene HCAR3; full-length, HA/FLAG tags, CHO-K1
Source text: cAMP inhibition assay (ALPHAScreen), transfected CHO-K1 on chimpanzee HCA3

siamang HCA3 = biological target: T6, siamang HCA3 (Symphalangus syndactylus, UniProt Z9POU2MJD9); settings: read-out: EC50 (μM) (95% CI)
T6 construct: full-length, HA/FLAG tags, CHO-K1
Source text: cAMP inhibition assay (ALPHAScreen), transfected CHO-K1 on siamang HCA3

orangutan HCA3 = biological target: T7, orangutan HCA3 (Pongo pygmaeus, UniProt A0A4Y1JWR4); settings: read-out: EC50 (μM) (95% CI)
T7 construct: gene HCAR3; full-length, HA/FLAG tags, CHO-K1
T7 sequence (A0A4Y1JWR4 1-363): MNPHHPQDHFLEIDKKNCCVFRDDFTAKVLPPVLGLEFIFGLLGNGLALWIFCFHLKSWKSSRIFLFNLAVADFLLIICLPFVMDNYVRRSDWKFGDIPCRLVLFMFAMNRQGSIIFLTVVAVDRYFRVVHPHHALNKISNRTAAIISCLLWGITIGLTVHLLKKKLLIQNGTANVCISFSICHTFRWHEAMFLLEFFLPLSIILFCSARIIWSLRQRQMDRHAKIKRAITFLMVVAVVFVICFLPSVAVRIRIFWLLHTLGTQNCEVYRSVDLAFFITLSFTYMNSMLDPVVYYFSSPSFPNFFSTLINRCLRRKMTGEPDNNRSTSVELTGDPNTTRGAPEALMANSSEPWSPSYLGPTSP
Source text: cAMP inhibition assay (ALPHAScreen), transfected CHO-K1 on orangutan HCA3

mouse HCA1 = biological target: T8, mouse HCA1 (Mus musculus, UniProt Q8C131)
T8 construct: gene Hcar1; full-length, N-terminal HA and C-terminal FLAG tag, CHO-K1
T8 sequence (Q8C131 1-343): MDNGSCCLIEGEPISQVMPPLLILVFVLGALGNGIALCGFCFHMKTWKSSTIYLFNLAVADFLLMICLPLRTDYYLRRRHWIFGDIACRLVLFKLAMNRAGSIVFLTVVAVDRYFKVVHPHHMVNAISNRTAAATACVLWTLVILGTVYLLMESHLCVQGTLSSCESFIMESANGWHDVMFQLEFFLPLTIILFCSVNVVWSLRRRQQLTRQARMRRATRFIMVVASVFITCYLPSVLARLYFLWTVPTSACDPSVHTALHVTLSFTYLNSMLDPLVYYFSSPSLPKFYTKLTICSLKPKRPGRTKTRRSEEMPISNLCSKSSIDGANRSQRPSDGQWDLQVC
Source text: cAMP inhibition assay (ALPHAScreen), transfected CHO-K1 on mouse HCA1

gorilla HCA1 = biological target: T9, gorilla HCA1 (Gorilla gorilla, UniProt A0A2I2YNR0)
T9 construct: gene HCAR1; full-length, HA/FLAG tags, CHO-K1
T9 sequence (A0A2I2YNR0 1-346): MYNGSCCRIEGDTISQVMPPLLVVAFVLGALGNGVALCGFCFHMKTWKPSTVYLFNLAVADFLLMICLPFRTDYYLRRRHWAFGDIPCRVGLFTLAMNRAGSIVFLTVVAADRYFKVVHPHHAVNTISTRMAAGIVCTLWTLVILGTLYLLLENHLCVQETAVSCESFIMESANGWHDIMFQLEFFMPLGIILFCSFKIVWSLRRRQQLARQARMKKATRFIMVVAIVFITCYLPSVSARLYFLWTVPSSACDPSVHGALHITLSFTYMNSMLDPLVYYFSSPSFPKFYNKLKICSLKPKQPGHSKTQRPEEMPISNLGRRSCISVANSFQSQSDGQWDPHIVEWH
Source text: cAMP inhibition assay (ALPHAScreen), transfected CHO-K1 on gorilla HCA1

chimpanzee HCA1 = biological target: T10, chimpanzee HCA1 (Pan troglodytes, UniProt A0A2I3T0E0)
T10 construct: gene HCAR1; full-length, HA/FLAG tags, CHO-K1
T10 sequence (A0A2I3T0E0 1-346): as the sequence (A0A2I2YNR0 1-346) above, with V23I, S249L counted along it
Source text: cAMP inhibition assay (ALPHAScreen), transfected CHO-K1 on chimpanzee HCA1

human HCA1 = biological target: T11, human HCA1 (Homo sapiens, UniProt Q9BXC0); settings: read-out: HCA2 / Basal cAMP (% of mock-transfected)
T11 construct: gene HCAR1; full-length, N-terminal HA and C-terminal FLAG tag, pcDps, transient in CHO-K1
T11 sequence (Q9BXC0 whole entry): as the sequence (A0A2I2YNR0 1-346) above, with V23I, M131V, T141A, L148V counted along it
Source text: cAMP inhibition assay (ALPHAScreen), transfected CHO-K1 on human HCA1

T1 sequence (Q9EP66 whole entry): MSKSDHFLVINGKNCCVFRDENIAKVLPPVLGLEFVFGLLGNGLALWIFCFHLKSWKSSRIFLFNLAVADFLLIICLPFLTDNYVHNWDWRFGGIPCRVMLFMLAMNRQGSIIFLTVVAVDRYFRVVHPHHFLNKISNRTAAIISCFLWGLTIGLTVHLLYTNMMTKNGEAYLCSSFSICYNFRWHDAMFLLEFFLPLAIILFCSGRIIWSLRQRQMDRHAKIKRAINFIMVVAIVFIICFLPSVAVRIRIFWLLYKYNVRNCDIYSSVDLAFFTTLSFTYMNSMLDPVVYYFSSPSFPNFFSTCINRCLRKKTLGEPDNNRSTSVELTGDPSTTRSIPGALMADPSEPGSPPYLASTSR

`C[C@@H](O)CC(=O)O` [D-3HB] gave an EC50 (mouse HCA2) of 1030 µM, an EC50 (orangutan HCA2) of 680 µM and an EC50 (human HCA2) of 530 µM.
In the case of `O=C(O)[C@H](O)Cc1ccccc1` [D-PLA], the EC50 (human HCA3) is reported as 0.15 µM, the “EC50 (μM) (95% CI)” value (chimpanzee HCA3) is reported as 0.13 (0.08–0. 22) μM and the EC50 (siamang HCA3) is reported as 0.28 µM. It also gave an EC50 (orangutan HCA3) of 1.2 µM.
`C[C@H](O)C(=O)O` [L-lactate] showed an EC50 (mouse HCA1) of 2900 µM, an EC50 (gorilla HCA1) of 2300 µM and an EC50 (chimpanzee HCA1) of 4100 µM. For the same molecule, the EC50 (human HCA1) was 2400 µM.
